Values of other authors, collected in patent US7235541B2, “Neurokinin antagonists for use as medicaments” (Astrazeneca AB, priority 2000, dated 2007).
Read-outs that look alike come from different tables or passages of the source. Peptide text beside a SMILES is read from it.

Experiments:
[1] = Elevated plus-maze
[2] = Forced swim test (depression model); only at 30 mg/kg bid; Vassout et al, Neuropeptides 1994
[3] = Light-dark box
[4] = Marmoset human intruder; Walsh et al., Psychopharmacology 1995
[5] = Teixeira et al., Eur J Pharmacol 1996
[6] = Stratton et al., Eur. J. Pharmacol. 1993
[7] = Walsh et al., Psychopharmacology 1995

SMILES	Outcome [1, 5]	Outcome [3, 6]	Outcome [4]	Outcome [3, 7]	further results
Cc1cc(C)cc(C(=O)N2CC[C@H](NCc3ccnc4ccccc34)C[C@H]2Cc2ccccc2)c1 [CGP 49823]					Outcome (Social interaction test, Vassout et al, Neuropeptides 1994): anxiolytic; Outcome (Social interaction, File, Pharm Bio B 1997): anxiolytic; Outcome ([1]; Vassout et al, Neuropeptides 1994): inactive; Outcome [2]: antidepressant
CN(Cc1ccccc1)C(=O)[C@H](Cc1ccc2ccccc2c1)NC(=O)[C@@H]1C[C@@H](O)CN1C(=O)c1cn(C)c2ccccc12 [FK888]	anxiolytic				
C[C@H](NC(=O)CNC(=O)C1CCCCC1)C(=O)N[C@H](Cc1c[nH]c2ccccc12)C(=O)N[C@@H](Cc1ccccc1)C(=O)N(C)C [GR100679] (HELM PEPTIDE1{[O=C(C1CCCCC1)[*:2]].G.A.[dW].F.[CN(C)[*:1]]}$$$$V2.0)		anxiolytic			
COC1(C[S@@+]([O-])c2ccccc2)CCN(CCc2c[nH]c3ccc(F)cc23)CC1 [GR159897]			anxiolytic	anxiolytic	
CC(=O)NC1(c2ccccc2)CCN(CC[C@H](CN(C)C(=O)c2ccccc2)c2ccc(Cl)c(Cl)c2)CC1 [SR48968]	anxiolytic	anxiolytic	anxiolytic	anxiolytic	
